Test results: publication PMC12455397 (Angewandte Chemie (International Ed. in English), 2025)
Counter-ions that a name gives are not always drawn. Like-named read-outs stand apart in the source and are kept apart here.

Experiments:
[1] = test system: differentiated THP1 macrophages (WT)
[2] = test system: Nrf2 KO THP1 cells differentiated into macrophages; experiment: RNA sequencing transcriptome analysis, Nrf2 KO THP-1 macrophages; type: cell-based; conditions: 12 h, CDDO-Me 0.1 µM, DMF, 24, 28 10 µM, KI-696 1 µM
THP1 cells = type: cell-based; conditions: THP-1 WT, 100 µM, 48 h; stated as contrast to 24/28, which did not reduce viability
Experimental: THP1 cells were exposed to the compounds for 48 hours at 10 and 100 μM. Viability was quantified using
propidium iodide exclusion through flow cytometry. PI-positive cells (dead or necrotic cells) were quantified
through red fluorescence on a BD C6 Accuri flow cytometer using a 488 nm excitation wavelength and an
emission filter of 585 nm ± 40 nm (BD Biosciences). 50,000 events were collected (n = 3 technical replicates
per condition). The experiment was repeated twice. Data are presented as mean ± SEM (n = 4‒10).

Keap1 Kelch domain = Keap1 Kelch domain (Homo sapiens, UniProt Q14145); experiment: Surface plasmon resonance (SPR), immobilized Keap1 Kelch
Experimental: Surface Plasmon Resonance
SPR measurements were performed at 25 °C using a Pioneer FE FE instrument (Sartorius), as described
previosuly.[1, 3-4] The Keap1 Kelch domain was covalently immobilized on the biosensor chip surface by
amine coupling to a level of 2150 RU, using a 10 mM NaOAc pH 5 immobilization buffer. The 1×HBSTET
buffer (10 mM Hepes, 150 mM NaCl, 0.005% Tween20, 3 mM EDTA, 1 mM TCEP, pH = 7.4)
supplemented with 4% DMSO was used as running buffer for the experiments. Microcalibration was
performed for all SPR experiments to adjust for DMSO bulk effects (low limit of 3% and a high limit of
5%). The compound was injected in a concentration series of twofold serial dilutions (67.5–1000 µM)
using standard injections at a 30 μL/min flow rate. The data were analyzed using Qdat Data Analysis
Tool version 2.6.3.0 (Sartorius). The sensorgrams were corrected for buffer effects and unspecific
binding to the chip matrix by subtraction of blank and reference surfaces (a blank flow cell channel
activated by the injection of EDC/NHS and inactivated by the injection of ethanolamine). The
dissociation constant (Kd) was estimated by plotting MW normalized response levels (RUnorm) at equilibrium (Req) against the injected concentration and curve-fitted to a Langmuir (1:1) binding

human Keap1 Kelch = human Keap1 Kelch (Homo sapiens, UniProt Q14145); experiment: Fluorescence polarization (FP) competition assay with Cy5-Nrf2 peptide probe
Experimental: Fluorescence Polarization Assay
(3 nM) and human Keap1 Kelch at 14 nM in the 1×HBSTET assay buffer, as previously.[1, 3-5] In short, the assay was performed in black flat-bottom 384-well plates (Corning Life Sciences, NY) allowing an assay volume of 30 μL/well. Proper mixing and elimination of air bubbles was ascertained by spinning down the plates and incubation for 10–15 minutes at RT before measuring FP levels on a Safire2 plate-reader (Tecan, Männedorf, Switzerland). The Ki values of the compounds were determined by dose-response experiments (12-points, 4% DMSO in all wells), where FP values were fitted to the equation Y = Bottom + (Top - Bottom)/[1 + (10HillSlope*(LogIC50-X))]; X representing the logarithmic value of compound concentration. The resulting IC50 value, together with the Kd value (the dissociation constant between probe and Keap1 Kelch, determined in a prior experiment) and Keap1 Kelch concentrations, was used to calculate the theoretical competitive inhibition constant, the Ki value.[18]

[3] = WT, 12 h, CDDO-Me 0.1 µM, SFN, DMF, 24, 28 10 µM, KI-696 1 µM
[4] = WT, 12 h, CDDO-Me 0.1 µM, SFN, DMF, 24, 28 10 µM, KI-696 1 µM, NS = not significant

Keap1 Kelch domain, sequence (Q14145 321-609 limits assumed): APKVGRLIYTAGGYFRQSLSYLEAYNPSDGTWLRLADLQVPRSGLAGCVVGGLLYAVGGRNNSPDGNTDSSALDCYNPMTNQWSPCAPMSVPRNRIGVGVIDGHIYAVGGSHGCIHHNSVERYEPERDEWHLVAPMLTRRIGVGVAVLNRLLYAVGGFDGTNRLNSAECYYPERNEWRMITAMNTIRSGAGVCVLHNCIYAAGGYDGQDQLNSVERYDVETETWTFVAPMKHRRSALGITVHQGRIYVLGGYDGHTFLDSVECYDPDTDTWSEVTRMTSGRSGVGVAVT
human Keap1 Kelch, sequence (Q14145 321-609): as the sequence (Q14145 321-609 limits assumed) above

SMILES	AKR1B10 FC ([1]; Table S3, THP-1, 12 h)	CASP1 FC ([1]; Table S3, THP-1, 12 h)	COL1A1 FC ([1]; Table S3, THP-1, 12 h)	COL4A1 FC ([1]; Table S3, THP-1, 12 h)	COL4A2 FC ([1]; Table S3, THP-1, 12 h)	GPX1 FC ([1]; Table S3, THP-1, 12 h)	GPX4 FC ([1]; Table S3, THP-1, 12 h)	IFNAR1 FC ([1]; Table S3, THP-1, 12 h)	IFNAR2 FC ([1]; Table S3, THP-1, 12 h)	IFNGR1 FC ([1]; Table S3, THP-1, 12 h)	IFNGR2 FC ([1]; Table S3, THP-1, 12 h)	IL1B FC ([1]; Table S3, THP-1, 12 h)	IRF3 FC ([1]; Table S3, THP-1, 12 h)	LAMB1 FC ([1]; Table S3, THP-1, 12 h)	LAMB4 FC ([1]; Table S3, THP-1, 12 h)	MMP8 FC ([1]; Table S3, THP-1, 12 h)	MMP9 FC ([1]; Table S3, THP-1, 12 h)	MMP12 FC ([1]; Table S3, THP-1, 12 h)	NLRP3 FC ([1]; Table S3, THP-1, 12 h)	NOD2 FC ([1]; Table S3, THP-1, 12 h)	further results
COC(=O)/C=C/C(=O)OC [DMF, dimethyl fumarate]	1,00 fold	0,18 fold	0,44 fold	1,46 fold	1,16 fold	0,59 fold	1,09 fold	0,95 fold	0,80 fold	0,93 fold	0,78 fold	2,70 fold	1,15 fold	4,44 fold	7,56 fold	1,70 fold	0,85 fold	1,88 fold	1,19 fold	0,31 fold	NOXA1 FC ([1]; Table S3, THP-1, 12 h): 0,30 fold; SOCS1 FC ([1]; Table S3, THP-1, 12 h): 5,21 fold; SOCS3 FC ([1]; Table S3, THP-1, 12 h): 18,01 fold; SOD1 FC ([1]; Table S3, THP-1, 12 h): 1,73 fold; SOD2 FC ([1]; Table S3, THP-1, 12 h): 0,19 fold; STAT1 FC ([1]; Table S3, THP-1, 12 h): 0,62 fold; TBK1 FC ([1]; Table S3, THP-1, 12 h): 1,19 fold; TLR4 FC ([1]; Table S3, THP-1, 12 h): 0,84 fold; TNFRSF1B FC ([1]; Table S3, THP-1, 12 h): 1,26 fold; TRAP1 FC ([1]; Table S3, THP-1, 12 h): 0,85 fold; cGAS FC ([1]; Table S3, THP-1, 12 h): 1,04 fold; number of upregulated genes not shared by the other groups ([1]; WT, 12 h, CDDO-Me 0.1 µM, DMF 10 µM): > 500 genes; Average FC of upregulated Nrf2-dependent genes [1, 3]: 4.2 fold; number of upregulated genes (FC >2.0, p-adj <0.05) [1, 3]: 845 genes; number of up- or downregulated genes in Nrf2 KO cells [2]: 3709 genes; cell viability (THP1 cells): contrasted
C[S+]([O-])CCCCN=C=S (centres unmarked) [SFN, sulforaphane]	34,78 fold	0,45 fold	0,98 fold	0,55 fold	1,38 fold	0,53 fold	0,94 fold	0,88 fold	0,85 fold	0,63 fold	0,58 fold	0,36 fold	1,48 fold	7,81 fold	17,37 fold	0,32 fold	0,70 fold	0,29 fold	0,44 fold	0,16 fold	CYP1B1 FC [1]: 1,15 fold; NOXA1 FC ([1]; Table S3, THP-1, 12 h): 0,45 fold; SOCS1 FC ([1]; Table S3, THP-1, 12 h): 2,19 fold; SOCS3 FC ([1]; Table S3, THP-1, 12 h): 0,99 fold; SOD1 FC ([1]; Table S3, THP-1, 12 h): 2,16 fold; SOD2 FC ([1]; Table S3, THP-1, 12 h): 0,40 fold; STAT1 FC ([1]; Table S3, THP-1, 12 h): 0,66 fold; TBK1 FC ([1]; Table S3, THP-1, 12 h): 0,95 fold; TLR4 FC ([1]; Table S3, THP-1, 12 h): 0,43 fold; TNFRSF1B FC ([1]; Table S3, THP-1, 12 h): 1,19 fold; TRAP1 FC ([1]; Table S3, THP-1, 12 h): 0,74 fold; cGAS FC ([1]; Table S3, THP-1, 12 h): 1,42 fold; Average FC of upregulated Nrf2-dependent genes [1, 3]: 4.1 fold; number of upregulated genes (FC >2.0, p-adj <0.05) [1, 3]: 676 genes; GCLM fold change vs vehicle [1, 4]: 4.7 fold; GSR fold change vs vehicle [1, 4]: 3.4 fold; SRXN1 fold change vs vehicle [1, 4]: 4.5 fold; TXNRD1 fold change vs vehicle [1, 4]: 3.9 fold; cell viability (THP1 cells): contrasted
COc1cc([C@@H](CC(=O)O)c2ccc(C)c(CN3C[C@@H](C)Oc4ccccc4S3(=O)=O)c2)cc2nnn(C)c12 [KI-696]	26,39 fold	0,94 fold	1,59 fold	0,61 fold	0,77 fold	1,38 fold	1,74 fold	0,90 fold	1,02 fold	0,70 fold	0,91 fold	0,85 fold	1,43 fold	2,64 fold	3,38 fold	0,82 fold	1,21 fold	0,60 fold	0,78 fold	0,57 fold	CYP1B1 FC ([1]; Table S3, THP-1, 12 h): 0,76 fold; NOXA1 FC ([1]; Table S3, THP-1, 12 h): 0,92 fold; SOCS1 FC ([1]; Table S3, THP-1, 12 h): 2,43 fold; SOCS3 FC ([1]; Table S3, THP-1, 12 h): 1,66 fold; SOD1 FC ([1]; Table S3, THP-1, 12 h): 1,75 fold; SOD2 FC ([1]; Table S3, THP-1, 12 h): 0,87 fold; STAT1 FC ([1]; Table S3, THP-1, 12 h): 0,69 fold; TBK1 FC ([1]; Table S3, THP-1, 12 h): 1,56 fold; TLR4 FC ([1]; Table S3, THP-1, 12 h): 0,32 fold; TNFRSF1B FC ([1]; Table S3, THP-1, 12 h): 1,13 fold; TRAP1 FC ([1]; Table S3, THP-1, 12 h): 1,02 fold; cGAS FC ([1]; Table S3, THP-1, 12 h): 1,08 fold; Average FC of upregulated Nrf2-dependent genes [1, 3]: 2.4 fold; number of upregulated genes (FC >2.0, p-adj <0.05) [1, 3]: 88 genes; GCLM fold change vs vehicle [1, 4]: 2.5 fold; GSR fold change vs vehicle [1, 4]: 2.4 fold; HMOX1 fold change vs vehicle [1, 4]: 2.6 fold; NQO1 fold change vs vehicle [1, 4]: 2.3 fold; TXNRD1 fold change vs vehicle [1, 4]: 2.3 fold; number of up- or downregulated genes in Nrf2 KO cells [2]: none
O=C(COc1ccccc1)NC1CCCCC1 [Compound 1]	–	–	–	–	–	–	–	–	–	–	–	–	–	–	–	–	–	–	–	–	Kd (Keap1 Kelch domain; KD (SPR, printed in Figure 1b), Rmax fixed to theoretical maximum (15 RU)): 686 ± 7 µM; Kd (Keap1 Kelch domain; Kd (SPR), estimated with Rmax fixed to theoretical maximum): ~700 µM; ligand efficiency (LE) (Keap1 Kelch domain; from SPR Kd): 0.25; activity in FP competition assay (human Keap1 Kelch): inactive
